What was measured:
Format in all cases: in vivo
[1] = system: duck salad (Heteranthera limosa); assay: Test C flooded paddy test; settings: for Ducksalad plant response rating: Flooded Paddy, scale 0 to 100, 0 no effect, 100 complete control; for Plant response rating, Ducksalad: flooded paddy test, scale 0 to 100 (0 no effect, 100 complete control)
How it was run: (§1)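 Ratings come from visual comparison with control plants after 12 to 14 days in the greenhouse. Each species was at the 2-leaf stage when the flooded paddy was treated. Scores run from 0, meaning no effect, to 100, meaning complete control.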

rice (Oryza saliva) = assay: Test C flooded paddy test; settings: for Rice plant response rating: Flooded Paddy, scale 0 to 100, 0 no effect, 100 complete control; for Plant response rating, Rice: flooded paddy test, scale 0 to 100 (0 no effect, 100 complete control)
How it was run: as §1

[2] = system: barnyardgrass (Echinochloa crus-galli); assay: Test C flooded paddy test; settings: for Barnyardgrass plant response rating: Flooded Paddy, scale 0 to 100, 0 no effect, 100 complete control; for Plant response rating, Barnyardgrass: flooded paddy test, scale 0 to 100 (0 no effect, 100 complete control)
How it was run: as §1

Sunflower = assay: Test C preemergence; settings: Rate 62 g/ha, scale 0 to 100
[3] = system: crabgrass (Digitaria sanguinalis); assay: Test C postemergence
Source text: (§2) Seeds of plant species selected from bermudagrass (Cynodon dactylon), Surinam grass (Brachiaria decumbens), cocklebur (Xanthium strumarium), corn (Zea mays), crabgrass (Digitaria sanguinalis), woolly cupgrass (Eriochloa villosa), giant foxtail (Setaria faberii), goosegrass (Eleusine indica), johnsongrass (Sorghum halepense), kochia (Kochia scoparia), lambsquarters (Chenopodium album), morningglory (Ipomoea hederacea), yellow nutsedge (Cyperus esculentus), pigweed (Amaranthus retroflexus), common ragweed (Ambrosia elatior), soybean (Glycine max) and velvetleaf (Abutilon theophrasti) were planted and treated preemergence with test chemicals formulated in a non-phytotoxic solvent mixture which included a surfactant.
(§3) At the same time, plants selected from these crop and weed species and also winter barley (Hordeum vulgare), blackgrass (Alopecurus myosuroides), canary grass (Phalaris minor), chickweed (Stellaria media), downy brome (Bromus tectorum), green foxtail (Setaria viridis), Italian ryegrass (Lolium multiflorum), wheat (Triticum aestivum), wild oat (Avena fatua) and windgrass (Apera spica-venti) were treated with postemergence applications of some of the test chemicals formulated in the same manner. Plants ranged in height from 2 to 18 cm (1- to 4-leaf stage) for postemergence treatments. Plant species in the flooded paddy test consisted of rice (Oryza saliva), smallflower flatsedge (Cyperus difformis), duck salad (Heteranthera limosa) and barnyardgrass (Echinochloa crus-galli) grown to the 2-leaf stage for testing. Treated plants and controls were maintained in a greenhouse for 12 to 14 days, after which time all species were compared to controls and visually evaluated. Plant response ratings, summarized in Table C, are based on a scale of 0 to 100 where 0 is no effect and 100 is complete control. A dash (-) response means no test result.

[4] = system: giant foxtail (Setaria faberii); assay: Test C postemergence
Source text: as §2, §3

[5] = system: morningglory (Ipomoea hederacea); assay: Test C postemergence
Source text: as §2, §3

[6] = system: johnsongrass (Sorghum halepense); assay: Test C postemergence
Source text: as §2, §3

[7] = system: pigweed (Amaranthus retroflexus); assay: Test C postemergence
Source text: as §2, §3

corn (Zea mays) = assay: Test C postemergence
Source text: as §2, §3

[8] = system: bermudagrass (Cynodon dactylon); assay: Test C postemergence
Source text: as §2, §3

[9] = system: Surinam grass (Brachiaria decumbens); assay: Test C postemergence
Source text: as §2, §3

[10] = system: cocklebur (Xanthium strumarium); assay: Test C postemergence
Source text: as §2, §3

[11] = system: woolly cupgrass (Eriochloa villosa); assay: Test C postemergence
Source text: as §2, §3

[12] = system: yellow nutsedge (Cyperus esculentus); assay: Test C postemergence
Source text: as §2, §3

kochia (Kochia scoparia) = assay: Test C postemergence
Source text: as §2, §3

[13] = Rate 250 g/ha, scale 0 to 100 (0 no effect, 100 complete control)
[14] = Rate 500 g/ha, scale 0 to 100 (0 no effect, 100 complete control)
[15] = Rate 125 g/ha, scale 0 to 100, 0 no effect, 100 complete control

**Q.** How did the “Ducksalad plant response rating” value ([1]; Rate 250 g/ha) turn out when `COc1cc(N2CCC(n3ccc(C(C)C)n3)C2=O)ccc1Cl` (centres unmarked) [Compound 120] was run?
**A.** The value was 100.

**Q.** What about the “Ducksalad plant response rating” value ([1]; Rate 500 g/ha) of the same molecule?
**A.** Its value is 100.

**Q.** What about the “Plant response rating, Ducksalad” value ([1]; Rate 62 g/ha) of the same molecule?
**A.** Its value is 70.

**Q.** And the “Plant response rating, Ducksalad” value ([1]; Rate 125 g/ha)?
**A.** Its value is 100.

**Q.** What about the “Rice plant response rating” value (rice (Oryza saliva); Rate 250 g/ha) of the same molecule?
**A.** Its value is 30.

**Q.** What about the “Rice plant response rating” value (rice (Oryza saliva); Rate 500 g/ha) of the same molecule?
**A.** Its value is 80.

**Q.** And the “Plant response rating, Rice” value (rice (Oryza saliva); Rate 62 g/ha)?
**A.** The value was 0.

**Q.** What about the “Plant response rating, Rice” value (rice (Oryza saliva); Rate 125 g/ha) of the same molecule?
**A.** Its value is 20.

**Q.** What about the “Barnyardgrass plant response rating” value ([2]; Rate 250 g/ha) of the same molecule?
**A.** Its value is 80.

**Q.** What about the “Plant response rating, Barnyardgrass” value ([2]; Rate 62 g/ha) of the same molecule?
**A.** The value was 20.

**Q.** What about the “Plant response rating, Barnyardgrass” value ([2]; Rate 125 g/ha) of the same molecule?
**A.** The value was 50.

**Q.** And the “Plant response rating, Sunflower” value (Sunflower)?
**A.** The value was 60.

**Q.** What about the “Plant response rating, Crabgrass” value ([3]; Rate 62 g/ha, scale 0 to 100) of the same molecule?
**A.** The value was 0.

**Q.** What about the “Plant response rating, Crabgrass” value [3, 13] of the same molecule?
**A.** The value was 40.

**Q.** And the “Plant response rating, Crabgrass” value [3, 14]?
**A.** Its value is 90.

**Q.** And the “Plant response rating, Foxtail, Giant” value ([4]; Rate 62 g/ha, scale 0 to 100)?
**A.** The value was 0.

**Q.** What about the “Plant response rating, Foxtail, Giant” value [4, 13] of the same molecule?
**A.** Its value is 0.

**Q.** What about the “Plant response rating, Foxtail, Giant” value [4, 14] of the same molecule?
**A.** The value was 70.

**Q.** What about the “Plant response rating, Morningglory” value ([5]; Rate 62 g/ha, scale 0 to 100) of the same molecule?
**A.** Its value is 0.

**Q.** And the “Plant response rating, Morningglory” value [5, 13]?
**A.** Its value is 90.

**Q.** What about the “Plant response rating, Morningglory” value [5, 14] of the same molecule?
**A.** The value was 100.

**Q.** What about the “Plant response rating, Johnsongrass” value ([6]; Rate 62 g/ha, scale 0 to 100) of the same molecule?
**A.** The value was 0.

**Q.** What about the “Plant response rating, Johnsongrass” value [6, 13] of the same molecule?
**A.** Its value is 0.

**Q.** And the “Plant response rating, Johnsongrass” value [6, 14]?
**A.** Its value is 0.

**Q.** And the “Plant response rating, Johnsongrass” value ([6]; rate not given, scale 0 to 100)?
**A.** Its value is 0.

**Q.** And the “Plant response rating, Pigweed” value ([7]; Rate 62 g/ha, scale 0 to 100)?
**A.** Its value is 0.

**Q.** And the “Plant response rating, Pigweed” value [7, 13]?
**A.** The value was 60.

**Q.** And the “Plant response rating, Pigweed” value [7, 14]?
**A.** The value was 90.

**Q.** And the “Plant response rating, Corn” value (corn (Zea mays); Rate 62 g/ha, scale 0 to 100)?
**A.** Its value is 30.

**Q.** What about the “Plant response rating, Corn” value (corn (Zea mays); [13]) of the same molecule?
**A.** The value was 30.

**Q.** And the “Plant response rating, Corn” value (corn (Zea mays); [14])?
**A.** The value was 50.

**Q.** What about the “Plant response rating, Corn” value (corn (Zea mays); scale 0 to 100) of the same molecule?
**A.** Its value is 30.

**Q.** And the “Plant response rating, Bermudagrass” value ([8]; Rate 62 g/ha, scale 0 to 100)?
**A.** The value was 0.

**Q.** And the “Plant response rating, Bermudagrass” value [8, 15]?
**A.** Its value is 0.

**Q.** What about the “Plant response rating, Bermudagrass” value [8, 13] of the same molecule?
**A.** Its value is 0.

**Q.** What about the “Plant response rating, Bermudagrass” value [8, 14] of the same molecule?
**A.** The value was 70.

**Q.** What about the “Plant response rating, Surinam grass” value ([9]; Rate 62 g/ha, scale 0 to 100) of the same molecule?
**A.** The value was 0.

**Q.** What about the “Plant response rating, Surinam grass” value [9, 15] of the same molecule?
**A.** The value was 0.

**Q.** What about the “Plant response rating, Surinam grass” value [9, 13] of the same molecule?
**A.** The value was 0.

**Q.** And the “Plant response rating, Surinam grass” value [9, 14]?
**A.** The value was 0.

**Q.** And the “Plant response rating, Cocklebur” value ([10]; Rate 62 g/ha, scale 0 to 100)?
**A.** The value was 0.

**Q.** And the “Plant response rating, Cocklebur” value [10, 13]?
**A.** The value was 80.

**Q.** What about the “Plant response rating, Cocklebur” value [10, 14] of the same molecule?
**A.** Its value is 90.

**Q.** And the “Plant response rating, Cupgrass, Woolly” value ([11]; Rate 62 g/ha, scale 0 to 100)?
**A.** Its value is 0.

**Q.** And the “Plant response rating, Cupgrass, Woolly” value [11, 13]?
**A.** The value was 0.

**Q.** And the “Plant response rating, Cupgrass, Woolly” value [11, 14]?
**A.** Its value is 0.

**Q.** And the “Plant response rating, Nutsedge” value ([12]; Rate 62 g/ha, scale 0 to 100)?
**A.** The value was 0.

**Q.** What about the “Plant response rating, Nutsedge” value [12, 13] of the same molecule?
**A.** The value was 0.

**Q.** What about the “Plant response rating, Nutsedge” value [12, 14] of the same molecule?
**A.** The value was 50.

**Q.** What about the “Plant response rating, Kochia” value (kochia (Kochia scoparia); Rate 62 g/ha, scale 0 to 100) of the same molecule?
**A.** Its value is 50.

**Q.** What about the “Plant response rating, Kochia” value (kochia (Kochia scoparia); [13]) of the same molecule?
**A.** The value was 90.

**Q.** What about the “Plant response rating, Kochia” value (kochia (Kochia scoparia); [14]) of the same molecule?
**A.** The value was 90.

**Q.** What does the source list for `CCCC(C)c1ccn(C2CCN(c3ccc(Cl)c(OC)c3)C2=O)n1` (centres unmarked) [Compound 121]?
**A.** Ducksalad plant response rating ([1]; Rate 250 g/ha): 60; Ducksalad plant response rating ([1]; Rate 500 g/ha): 90; Plant response rating, Ducksalad ([1]; Rate 62 g/ha): 0; Plant response rating, Ducksalad ([1]; Rate 125 g/ha): 0; Rice plant response rating (rice (Oryza saliva); Rate 250 g/ha): 0; Rice plant response rating (rice (Oryza saliva); Rate 500 g/ha): 0; Plant response rating, Rice (rice (Oryza saliva); Rate 125 g/ha): 0; Barnyardgrass plant response rating ([2]; Rate 250 g/ha): 20; Barnyardgrass plant response rating ([2]; Rate 500 g/ha): 80; Plant response rating, Barnyardgrass ([2]; Rate 62 g/ha): 0; Plant response rating, Barnyardgrass ([2]; Rate 125 g/ha): 20; Plant response rating, Sunflower (Sunflower): 10; Plant response rating, Crabgrass ([3]; Rate 62 g/ha, scale 0 to 100): 0; Plant response rating, Crabgrass [3, 13]: 40; Plant response rating, Crabgrass [3, 14]: 60; Plant response rating, Foxtail, Giant ([4]; Rate 62 g/ha, scale 0 to 100): 0; Plant response rating, Foxtail, Giant [4, 13]: 20; Plant response rating, Foxtail, Giant [4, 14]: 60; Plant response rating, Morningglory ([5]; Rate 62 g/ha, scale 0 to 100): 50; Plant response rating, Morningglory [5, 13]: 70; Plant response rating, Morningglory [5, 14]: 100; Plant response rating, Johnsongrass ([6]; Rate 62 g/ha, scale 0 to 100): 0; Plant response rating, Johnsongrass [6, 13]: 0; Plant response rating, Johnsongrass [6, 14]: 0; Plant response rating, Johnsongrass ([6]; rate not given, scale 0 to 100): 0; Plant response rating, Pigweed ([7]; Rate 62 g/ha, scale 0 to 100): 20; Plant response rating, Pigweed [7, 13]: 70; Plant response rating, Pigweed [7, 14]: 90; Plant response rating, Corn (corn (Zea mays); Rate 62 g/ha, scale 0 to 100): 0; Plant response rating, Corn (corn (Zea mays); [13]): 0; Plant response rating, Corn (corn (Zea mays); [14]): 40; Plant response rating, Corn (corn (Zea mays); scale 0 to 100): 0; Plant response rating, Bermudagrass ([8]; Rate 62 g/ha, scale 0 to 100): 0; Plant response rating, Bermudagrass [8, 15]: 0; Plant response rating, Bermudagrass [8, 13]: 0; Plant response rating, Bermudagrass [8, 14]: 0; Plant response rating, Surinam grass ([9]; Rate 62 g/ha, scale 0 to 100): 0; Plant response rating, Surinam grass [9, 15]: 0; Plant response rating, Surinam grass [9, 13]: 0; Plant response rating, Surinam grass [9, 14]: 0; Plant response rating, Cocklebur ([10]; Rate 62 g/ha, scale 0 to 100): 0; Plant response rating, Cocklebur [10, 13]: 20; Plant response rating, Cocklebur [10, 14]: 40; Plant response rating, Cupgrass, Woolly ([11]; Rate 62 g/ha, scale 0 to 100): 0; Plant response rating, Cupgrass, Woolly [11, 13]: 30; Plant response rating, Cupgrass, Woolly [11, 14]: 60; Plant response rating, Nutsedge ([12]; Rate 62 g/ha, scale 0 to 100): 0; Plant response rating, Nutsedge [12, 13]: 0; Plant response rating, Nutsedge [12, 14]: 0; Plant response rating, Kochia (kochia (Kochia scoparia); Rate 62 g/ha, scale 0 to 100): 70; Plant response rating, Kochia (kochia (Kochia scoparia); [13]): 70; Plant response rating, Kochia (kochia (Kochia scoparia); [14]): 90

— US7138361B2, “Herbicidal heterocycles” (E. I. du Pont de Nemours and Company, priority 2000, dated 2006)
